Assay results published in publication PMC8445441, “Elucidating the mechanism by which synthetic helper peptides sensitize Pseudomonas aeruginosa to multiple antibiotics” (PLoS Pathogens, 2021).
Positions of bridges follow the written chain, without caps; N, C: chain ends. Non-standard residues stand in square brackets, D forms with d. Residues, ends and D or L forms follow the SMILES beside them. *: point of attachment. X1 = CC[C@H](C)CCCCC(=O)*; Dab = NCC[C@H](N)C(=O)O

Columns and labels:
[1] = system: P. aeruginosa HM-214; set-up: MICa: MIC of the antibiotic / MICac: MIC of the antibiotic in the combination: unit not given beside the values; conditions: strain HM-214
Procedure: (§1) The MIC tests were performed in triplicate using broth microdilution in accordance with Clinical and Laboratory Standards Institute (CLSI) recommendations (http://iacld.ir/DL/public/CLSI-2018-M100-S28.pdf). Briefly, drugs were two-fold diluted in MHB and mixed with an equal volume of bacterial suspensions containing approximately 1 × 10^6 CFU/mL in 96-well microliter plate. After 18 h incubation at 37 °C, the MIC values were defined as the lowest concentrations of antibiotics with no visible growth of bacteria. […] Otherwise, 1/4 MIC of the peptide was used in the combination. […] If needed, membrane compounds PG, PE, PC, CL or LPS, or membrane stabilizers MgCl2 or CaCl2, or efflux pumps inhibitor PAβN were added to the broth medium to clarify the effect of other substances on the synergy between peptide and antibiotics. All the tests were performed in triplicate.
(§2) The fractional inhibitory concentration (FIC) indices were calculated using the previously described formula FICI = FICa + FICb = MICac/MICa + MICbc/MICb. The FICI was interpreted according to EUCAST [65] as follows: synergistic, FICI≤0.5; additive, 0.5<FICI≤1; indifferent, 1<FICI<2; antagonistic, FICI ≥2. For the FICI calculations, twice the highest concentration tested was used in the cases where the MIC was not reached.

[2] = system: P. aeruginosa AUMC-Pa-1; conditions: strain AUMC-Pa-1
Procedure: as §1, §2

[3] = system: P. aeruginosa AUMC-Pa-2; conditions: strain AUMC-Pa-2
Procedure: as §1, §2

[4] = system: P. aeruginosa AUMC-Pa-4; test: microbe, parasite or virus in culture; conditions: strain AUMC-Pa-4
How it was run: (§3)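 After 18 h at 37 °C, the lowest concentration showing no visible growth was read as the MIC. Drugs were serially diluted two-fold in MHB and combined with an equal volume of inoculum (~1 × 10^6 CFU/mL), following CLSI broth microdilution; run in triplicate.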

[5] = system: P. aeruginosa AUMC-Pa-6; test: microbe, parasite or virus in culture; conditions: strain AUMC-Pa-6
How it was run: as §3

[6] = system: P. aeruginosa AUMC-Pa-5; test: microbe, parasite or virus in culture; conditions: strain AUMC-Pa-5
How it was run: as §3

[7] = system: P. aeruginosa PAO1; test: microbe, parasite or virus in culture; conditions: for MICac: the MIC for the antibiotic in the combination: S3 Table, PAO1
How it was run: as §3

[8] = system: P. aeruginosa AUMC-Pa-3; test: microbe, parasite or virus in culture; conditions: strain AUMC-Pa-3
How it was run: as §3

[9] = system: P. aeruginosa NR-31040; test: microbe, parasite or virus in culture; set-up: MICa: MIC of the antibiotic / MICac: MIC of the antibiotic in the combination: unit not given beside the values; conditions: strain NR-31040
Procedure: as §1, §2

[10] = system: P. aeruginosa ATCC27853; test: microbe, parasite or virus in culture; set-up: MICa: MIC of the antibiotic / MICac: MIC of the antibiotic in the combination: unit not given beside the values; conditions: strain ATCC27853
Procedure: as §1, §2

[11] = system: P. aeruginosa NR-31041; test: microbe, parasite or virus in culture; set-up: MICa: MIC of the antibiotic / MICac: MIC of the antibiotic in the combination: unit not given beside the values; conditions: strain NR-31041
Procedure: as §1, §2

[12] = system: P. aeruginosa PA14; test: microbe, parasite or virus in culture; set-up: MICa: MIC of the antibiotic / MICac: MIC of the antibiotic in the combination: unit not given beside the values; conditions: strain PA14
Procedure: as §1, §2

[13] = system: P. aeruginosa PAK; test: microbe, parasite or virus in culture; set-up: MICa: MIC of the antibiotic / MICac: MIC of the antibiotic in the combination: unit not given beside the values; conditions: strain PAK
Procedure: as §1, §2

[14] = system: clinical P. aeruginosa isolates; test: microbe, parasite or virus in culture; conditions: antibiotic alone
How it was run: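 MIC is the lowest drug concentration showing no visible growth after 18 h at 37 °C. Two-fold dilutions in MHB were combined with an equal volume of bacterial suspension (about 1 × 10^6 CFU/mL), following CLSI broth microdilution, in triplicate.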

[15] = antibiotic + D-11 (MICb/MICbc 128/4)
[16] = antibiotic alone, unit not given
[17] = with D-11 at MICbc 4, unit not given
[18] = antibiotic + D-11 (MICb/MICbc 64/4)

## CC[C@H](C)CCCCC(=O)N[C@@H](CCN)C(=O)N[C@H](C(=O)N[C@@H](CCN)C(=O)N[C@H]1CCNC(=O)[C@H]([C@@H](C)O)NC(=O)[C@H](CCN)NC(=O)[C@H](CCN)NC(=O)[C@H](CC(C)C)NC(=O)[C@@H](CC(C)C)NC(=O)[C@H](CCN)NC1=O)[C@@H](C)O [Colistin] (X1-[Dab]T[Dab][Dab][Dab][dL]L[Dab][Dab]T; lactam 4-C (inferred); N-terminus assumed)
[1]; [15]
  FICI: 0.063
[1]; [16]
  MICa: MIC of the antibiotic: 1
[1]; [17]
  MICac: MIC of the antibiotic in the combination: 0.031
[2]; [15]
  FICI: 0.281
[2]; [16]
  MICa: MIC of the antibiotic: 0.5
[2]; [17]
  MICac: MIC of the antibiotic in the combination: 0.125
[3]; [18]
  FICI: 1.063
[3]; [16]
  MICa: MIC of the antibiotic: 0.5/0.5
[3]; [17]
  MICac: MIC of the antibiotic in the combination: 0.5/0.5
[4]; [15]
  FICI: 0.531
[4]; [16]
  MICa: MIC of the antibiotic: 8
[4]; [17]
  MICac: MIC of the antibiotic in the combination: 4
[5]; [18]
  FICI: 0.563
[5]; [16]
  MICa: MIC of the antibiotic: 4
[5]; [17]
  MICac: MIC of the antibiotic in the combination: 2
[6]; [18]
  FICI: 1.063
[6]; [16]
  MICa: MIC of the antibiotic: 4/4
[6]; [17]
  MICac: MIC of the antibiotic in the combination: 4/4
[7]; PAO1, 18 h
  MICa: the MIC of antibiotics: 0.25 µM
[7]; with 2 μM D-11
  MICac: the MIC for the antibiotic in the combination: 0.004 µM
[7]; with 4 μM D-11
  MICac: the MIC for the antibiotic in the combination: 0.001 µM
[8]; [15]
  FICI: 0.039
[8]; [16]
  MICa: MIC of the antibiotic: 0.25
[8]; [17]
  MICac: MIC of the antibiotic in the combination: 0.002
[9]; [15]
  FICI: 0.281
[9]; [16]
  MICa: MIC of the antibiotic: 1
[9]; [17]
  MICac: MIC of the antibiotic in the combination: 0.25
[10]; antibiotic + D-11 (MICb/MICbc 32/4)
  FICI: 0.375
[10]; [16]
  MICa: MIC of the antibiotic: 0.25
[10]; [17]
  MICac: MIC of the antibiotic in the combination: 0.063
[11]; [18]
  FICI: 0.127
[11]; [16]
  MICa: MIC of the antibiotic: 0.125
[11]; [17]
  MICac: MIC of the antibiotic in the combination: 0.008
[12]; [15]
  FICI: 0.094
[12]; [16]
  MICa: MIC of the antibiotic: 0.25
[12]; [17]
  MICac: MIC of the antibiotic in the combination: 0.016
[13]; [18]
  FICI: 0.079
[13]; [16]
  MICa: MIC of the antibiotic: 0.25
[13]; [17]
  MICac: MIC of the antibiotic in the combination: 0.008
[14]; strain AUMC-Pa-1
  Antibiotic sensibility (MIC) of clinical P. aeruginosa isolate AUMC-Pa-1: 0.5 µM
[14]; strain AUMC-Pa-2
  Antibiotic sensibility (MIC) of clinical P. aeruginosa isolate AUMC-Pa-2: 0.5 µM
[14]; strain AUMC-Pa-3
  Antibiotic sensibility (MIC) of clinical P. aeruginosa isolate AUMC-Pa-3: 0.25 µM
[14]; strain AUMC-Pa-4
  Antibiotic sensibility (MIC) of clinical P. aeruginosa isolate AUMC-Pa-4: 8 µM
[14]; strain AUMC-Pa-5
  Antibiotic sensibility (MIC) of clinical P. aeruginosa isolate AUMC-Pa-5: 4 µM
[14]; strain AUMC-Pa-6
  Antibiotic sensibility (MIC) of clinical P. aeruginosa isolate AUMC-Pa-6: 4 µM
[14]; strain HM-214
  Antibiotic sensibility (MIC) of clinical P. aeruginosa isolate HM-214: 1 µM
[14]; strain NR-31040
  Antibiotic sensibility (MIC) of clinical P. aeruginosa isolate NR-31040: 1 µM
[14]; strain NR-31041
  Antibiotic sensibility (MIC) of clinical P. aeruginosa isolate NR-31041: 0.125 µM
